Values of other authors in patent US11759418B1, “Composition for treating wounds, dermatitis, inflammation, and irritation” (Chrism Products, Inc., priority 2016, dated 2023).
Where two headings read alike, the source gives them in different places.

How the values were obtained:
[1] = chemically synthesized bulk allantoin
wound healing process = settings: results from histological analyses

With `NC(=O)NC1NC(=O)NC1=O` (stereo not shown) [Allantoin, 5-ureidohydantoin] as the molecule, how does the Concentration (5% Glycerin in water, 20° C.) read?
The Concentration was “ca 0.8%”.

What about the Concentration (50% Isopropanol in water, 25° C.) of the same molecule?
The Concentration was “ca. 0.3%”.

And the Concentration (Ethanol, 20° C.)?
The Concentration was “ca. 0.1%”.

What about the Concentration (Propylene glycol, 25° C.) of the same molecule?
Its Concentration is “ca. 0.3%”.

What about the Concentration (Water, 20° C.) of the same molecule?
Its Concentration is “ca. 0.4%”.

And the Concentration (Water, 75° C.)?
The Concentration was “ca. 4.0%”.

What about the safety / toxicity [1] of the same molecule?
Its safety / toxicity is “safe, non-toxic”.

And the “effect on wound healing process” value (wound healing process)?
The value was “benefits the wound healing process”.

For “benzyl-dimethyl-tridecylazanium [Benzalkonium Chloride]”, which “concentration producing mild skin irritation” value (skin; clinical studies, dermal use) is on record?
Its value is no less than 5%.

And the “concentration safe for dermal use” value (skin; in vivo)?
The value was “up to 0.5%”.
